Data from ChEMBL document CHEMBL1125902, “2-aralkoxyadenosines: potent and selective agonists at the coronary artery A2 adenosine receptor” (J Med Chem, 1991).

Experiments:
Adenosine receptor A1 [1] = target: T1, Adenosine receptor A1 (Cavia porcellus, UniProt P47745); assay: Effective concentration required for prolongation of the stimulus-QRS interval by 50% of the maximum response at the A1 adenosine receptor in langendorff guinea pig heart preparation; assay type: functional
T1 sequence (P47745 whole entry): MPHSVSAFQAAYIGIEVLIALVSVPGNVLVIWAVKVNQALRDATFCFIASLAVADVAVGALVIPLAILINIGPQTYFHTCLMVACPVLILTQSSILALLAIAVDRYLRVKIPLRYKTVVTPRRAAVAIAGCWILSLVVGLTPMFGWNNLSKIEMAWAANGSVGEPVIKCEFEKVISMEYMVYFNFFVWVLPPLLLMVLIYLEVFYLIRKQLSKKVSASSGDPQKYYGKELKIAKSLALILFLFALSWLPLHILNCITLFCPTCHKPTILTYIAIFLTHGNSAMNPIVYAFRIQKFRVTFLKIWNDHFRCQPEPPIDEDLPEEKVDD

Adenosine A2 receptor [2] = target: T2, Adenosine A2 receptor (Homo sapiens, UniProt P29275+P29274)
Description: Concentration required for coronary arteries vasodilation at the A2 adenosine receptor in langendorff guinea pig heart preparation

Adenosine receptor A1 [3] = target: T1, Adenosine receptor A1; assay: Effective concentration required for prolongation of the stimulus-QRS interval by 50% of the maximum response at the Adenosine A1 receptor in langendorff guinea pig heart preparation; assay type: functional
Adenosine A2 receptor [4] = target: T2, Adenosine A2 receptor; remark: listed apart in the source
Description: Concentration required for coronary arteries vasodilation at the Adenosine A2 receptor in langendorff guinea pig heart preparation

EC50 (Adenosine receptor A1 [1]) [µM] | -Log EC50 (Adenosine A2 receptor [2]) | EC50 (Adenosine receptor A1 [3]) [µM] | -Log EC50 (Adenosine A2 receptor [4]) | SMILES
25.7 | 9.06 |  |  | Nc1nc(OCCc2ccc(F)cc2)nc2c1ncn2C1O[C@@H](CO)[C@H](O)[C@@H]1O (stereo partly drawn)
 |  | 42.7 | 8.31 | COc1ccc(CCOc2nc(N)c3ncn(C4O[C@@H](CO)[C@H](O)[C@@H]4O)c3n2)cc1OC (stereo partly drawn)
20 | 7.21 |  |  | Nc1nc(OCCCc2ccccc2)nc2c1ncn2[C@H]1O[C@@H](CO)[C@H](O)[C@@H]1O
34.7 | 8.72 |  |  | Nc1nc(OCCc2cccc(F)c2)nc2c1ncn2C1O[C@@H](CO)[C@H](O)[C@@H]1O (stereo partly drawn)
 |  | 6.31 | 6.38 | Nc1nc(OCc2ccccc2)nc2c1ncn2C1O[C@@H](CO)[C@H](O)[C@@H]1O (stereo partly drawn)
35.5 | 8.58 |  |  | Nc1nc(OCCc2ccccc2F)nc2c1ncn2C1O[C@@H](CO)[C@H](O)[C@@H]1O (stereo partly drawn)
 |  | 25.1 | 8.42 | Cc1ccccc1CCOc1nc(N)c2ncn(C3O[C@@H](CO)[C@H](O)[C@@H]3O)c2n1 (stereo partly drawn)
 |  | 12.9 | 8.8 | Cc1cccc(CCOc2nc(N)c3ncn(C4O[C@@H](CO)[C@H](O)[C@@H]4O)c3n2)c1 (stereo partly drawn)
 |  | 46.8 | 7.66 | COc1cc(CCOc2nc(N)c3ncn(C4O[C@@H](CO)[C@H](O)[C@@H]4O)c3n2)cc(OC)c1OC (stereo partly drawn)
7.08 | 8.02 |  |  | Nc1nc(OCCCCc2ccccc2)nc2c1ncn2C1O[C@@H](CO)[C@H](O)[C@@H]1O (stereo partly drawn)
 |  | 16.2 | 8.59 | COc1cccc(CCOc2nc(N)c3ncn(C4O[C@@H](CO)[C@H](O)[C@@H]4O)c3n2)c1 (stereo partly drawn)
8.32 |  |  |  | Nc1nc(OCCc2cccc3ccccc23)nc2c1ncn2C1O[C@@H](CO)[C@H](O)[C@@H]1O (stereo partly drawn)
21.9 | 8.26 |  |  | Nc1nc(OCCc2ccccc2Cl)nc2c1ncn2C1O[C@@H](CO)[C@H](O)[C@@H]1O (stereo partly drawn)
46.8 | 6.38 |  |  | Nc1nc(Oc2ccccc2)nc2c1ncn2C1O[C@@H](CO)[C@H](O)[C@@H]1O (stereo partly drawn)
20 | 8.55 |  |  | Nc1nc(OCCc2ccccc2)nc2c1ncn2C1O[C@@H](CO)[C@H](O)[C@@H]1O (stereo partly drawn)
19.5 | 8.85 |  |  | COc1ccc(CCOc2nc(N)c3ncn(C4O[C@@H](CO)[C@H](O)[C@@H]4O)c3n2)cc1 (stereo partly drawn)
 |  | 11.7 | 8.43 | Nc1nc(OCCc2cccs2)nc2c1ncn2C1O[C@@H](CO)[C@H](O)[C@@H]1O (stereo partly drawn)
 |  | 14.5 |  | Nc1nc(OCCc2ccc(Cl)cc2)nc2c1ncn2[C@H]1O[C@@H](CO)[C@H](O)[C@@H]1O
 |  | 16.2 | 8.52 | Nc1nc(OCCc2cccc(Cl)c2)nc2c1ncn2C1O[C@@H](CO)[C@H](O)[C@@H]1O (stereo partly drawn)
 |  | 35.5 | 7.5 | COc1ccccc1CCOc1nc(N)c2ncn(C3O[C@@H](CO)[C@H](O)[C@@H]3O)c2n1 (stereo partly drawn)

SMILES | EC50 (Adenosine receptor A1 [1]) [µM] | -Log EC50 (Adenosine A2 receptor [2]) | EC50 (Adenosine receptor A1 [3]) [µM] | -Log EC50 (Adenosine A2 receptor [4])
Nc1nc(OCCCCCc2ccccc2)nc2c1ncn2C1O[C@@H](CO)[C@H](O)[C@@H]1O (stereo partly drawn) | 4.57 | 8.2 |  | 
Cc1ccc(CCOc2nc(N)c3ncn(C4O[C@@H](CO)[C@H](O)[C@@H]4O)c3n2)cc1 (stereo partly drawn) |  |  | 7.41 | 9.72
Nc1nc(OCCc2ccc3ccccc3c2)nc2c1ncn2C1O[C@@H](CO)[C@H](O)[C@@H]1O (stereo partly drawn) |  |  | 11.5 | 9.3
Nc1nc(OCCc2c[nH]c3ccccc23)nc2c1ncn2C1O[C@@H](CO)[C@H](O)[C@@H]1O (stereo partly drawn) | 14.1 | 8.01 |  | 
Nc1nc(OCCc2ccsc2)nc2c1ncn2C1O[C@@H](CO)[C@H](O)[C@@H]1O (stereo partly drawn) |  |  | 18.6 | […]
